These are literature values, as cited in patent publication US12544428B2, “Controlled-release CNP agonists with reduced side-effects” (ASCENDIS PHARMA GROWTH DISORDERS A/S, priority 2016, dated 2026).

What is called half-life is the time needed for the level to fall by half in the phase considered.

The conditions of data set [1]: after iv administration; cited from earlier work.
The conditions of data set [2]: Phase 1 study, healthy volunteers; cited from earlier work.

Bridge positions count the residues as written; N and C are the ends. Ends that are not written are not given here.

Turning to `CC[C@H](C)[C@@H]1NC(=O)[C@H](CCCNC(=N)N)NC(=O)[C@H](CC(=O)O)NC(=O)[C@H](CC(C)C)NC(=O)[C@H](CCCCN)NC(=O)[C@H](CC(C)C)NC(=O)CNC(=O)[C@H](Cc2ccccc2)NC(=O)[C@@H](NC(=O)CNC(=O)[C@H](CCCCN)NC(=O)[C@H](CO)NC(=O)[C@H](CC(C)C)NC(=O)CN)CSSC[C@@H](C(=O)O)NC(=O)CNC(=O)[C@H](CC(C)C)NC(=O)CNC(=O)[C@H](CO)NC(=O)[C@H](CCSC)NC(=O)[C@H](CO)NC(=O)CNC1=O` [CNP-22], the half-life in data set [1] is reported as 2 min. For “BMN-111: a CNP variant with increased NEP resistance in development for the treatment of achondroplasia (PGQEHPNARKYKGANKKGLSKGCFGLKLDRIGSMSGLGC; disulfide 23-39; chains of the INN, looked up)”, the hypotension entry in data set [2] is reported as “mild hypotension”.
